Test results reported in patent US20080050398A1, “Composition Comprising Beta-Defensin 2” (priority 2005, published 2008).
No end group written: not given here.

Legend:
Propionibacterium acnes = assay: Inhibition of skin microorganisms by human β-defensin 2: CFU count, reduction factor vs control; type: cell-based; conditions: P. acnes; for inhibition of the microorganism (in words): harmful organism; for logarithmic decrease in the cell number (RF): 35.7 μg/ml, compared with the control
Experimental: (§1) Staphylococcus epidermidis and bacillus lichenformis were grown in LB medium under aerobic conditions at 37° C. Propionibacterium acnes was grown in TBST medium under anaerobic conditions at 37° C. The concentration of human β-defensin 2 was 35.7 μg/ml. Procedure: 18-hour cultures (S. epidermidis and B. lichenformis) or 5-day cultures (P. acnes) in LB or TBST liquid media; Measurement of the cultures at A620 nm; Adjustment in PBS [phosphate-buffered saline] to the proper A620 nm for 10^6 CFU/ml of the test strain; Microbial content checked with a dilution series in MTP brief procedure and plating; Make up stock solution of the ingredient AWK in PBS; Put 10 μl aliquots of the test strain suspension in the PCR tubes provided for AWK and control; Add to each 10 μl aliquots of AWK or PBS; Incubate aerobically at 37° C.; Determine the microbial content of the suspensions after 8 and 24 hours, with a dilution series in the MTP brief procedure and plating; Incubation of the agar plates under proper conditions for the strain; Evaluation, by visual check of the cultured agar plates, 8 or 24 hours after the start of the test; determination of the CFU and calculation of the reduction factors.

bacillus lichenformis = assay: as above; type: cell-based; conditions: B. lichenformis; for inhibition of the microorganism (in words): useful skin microorganism; for logarithmic decrease in the cell number (RF): 35.7 μg/ml, compared with the control
Experimental: as §1

[1] = tested on: Staphylococcus epidermidis; assay: as above; type: cell-based; conditions: S. epidermidis; for inhibition of the microorganism (in words): useful skin microorganism; for logarithmic decrease in the cell number (RF): 35.7 μg/ml, compared with the control
Experimental: as §1

corolase = assay: Compatibility of surfactants with enzymes: remaining enzyme activity; type: biochemical; conditions: 1% SDS, within 15 minutes
Experimental: (§2) In selection of suitable surfactants, one must make sure that they are compatible with the enzymes used. It is preferable that the enzyme activity not decrease more than 50%, particularly not more than 30%, during a typical average working time of 15 minutes. Thus, tests have shown that sodium dodecyl sulfate (SDS), which is known to be a denaturant, reduces the activity of corolase to less than 30% within 15 minutes, even at a concentration of 1%, while the activity of xylanase decreases to less than 40% with only 0.1% SDS, so that surfactant is not preferred for use in the cleaning agents according to the invention. If that surfactant, or one with similar action, must nevertheless be used, one should preferably make sure of spatial separation during storage, such as by encapsulating the enzyme or by use of a multichamber bottle so that the enzyme and surfactant come into contact with each other only immediately before or during use. Alkyl polyglycosides, on the other hand, are well suited for use in enzyme-containing agents according to this invention. For instance, the activity of corolase remains clearly over 50% even with 3% APG 600, while xylanase actually experiences an increase in activity from the use of APG 600 (more than 150% activity with 0.1% surfactant) and still has more than 80% activity with 3% APG.

xylanase = assay: as above; type: biochemical; conditions: 0.1% SDS
Experimental: as §2

| Compound | inhibition of the microorganism (in words) (Propionibacterium acnes; listed as human β-defensin 2) | inhibition of the microorganism (in words) (Propionibacterium acnes; listed as β-defensin 2) | logarithmic decrease in the cell number (RF) (Propionibacterium acnes; exposure time 8 hr) | logarithmic decrease in the cell number (RF) (Propionibacterium acnes; exposure time 24 hr) | inhibition of the microorganism (in words) (bacillus lichenformis; listed as human β-defensin 2) | inhibition of the microorganism (in words) (bacillus lichenformis; listed as β-defensin 2) | logarithmic decrease in the cell number (RF) (bacillus lichenformis; exposure time 8 hr) | logarithmic decrease in the cell number (RF) (bacillus lichenformis; exposure time 24 hr) | inhibition of the microorganism (in words) ([1]; listed as human β-defensin 2) | inhibition of the microorganism (in words) ([1]; listed as β-defensin 2) | logarithmic decrease in the cell number (RF) ([1]; exposure time 8 hr) | logarithmic decrease in the cell number (RF) ([1]; exposure time 24 hr) | activity of corolase (corolase) | activity of xylanase (xylanase) |
| --- | --- | --- | --- | --- | --- | --- | --- | --- | --- | --- | --- | --- | --- | --- |
| human β-defensin 2 (GIGDPVTCLKSGAICHPVFCPRRYKQIGGCGLPGTKCCKKP; ends and bridges not checked; cysteine pairing not given here) [used as hBD2 (Sigma) in the formulations] | good inhibition | distinctly more strongly inhibited | 0.9586 | 1.833 | only slight inhibition | only a slight inhibitory effect | 0.09275 | 0.3716 | only slight inhibition | only a slight inhibitory effect | 0.1963 | 0.09922 |  |  |
| CCCCCCCCCCCCOS(=O)(=O)[O-].[Na+] [SDS, sodium dodecyl sulfate] |  |  |  |  |  |  |  |  |  |  |  |  | less than 30% | less than 40% |
